# Source: patent publication EP0216646B1, “N,N-dimethylethyl amine oxide derivative, process for its preparation and pharmaceutical compositions obtained” (Albert ROLLAND S.A. Société dite, priority 1985, dated 1987)
# Legend:
# Type in all cases: in vivo
# [1] = acute toxicity in the mouse (median lethal dose); conditions: in vivo; acute toxicity, mouse; read-out: dose léthale moyenne
# Source text: (§1) Les sels de 2,2-bis phénoxy NN-diméthyl éthylamine sont décrits comme possédant des propriétés anti-dépressives.
# [2] = yohimbine-induced group toxicity
# Source text: (§2) Le N-oxyde de 2,2-bis phénoxy NN-diméthyl éthylamine et ses sels possèdent les propriétés caractéristiques des autres anti-dépresseurs, sur les tests pharmacologiques classiques. Ils inhibent l'effet hypothermisant de la réserpine, et de l'apomorphine, ils augmentent la toxicité de groupe induite par injection de yohimbine et ils antagonisent le test du désespoir chez la souris.
# souris [3] = assay: acute toxicity in the mouse (median lethal dose)
# Source text: as §1
# [4] = reserpine-induced hypothermia test; conditions: qualitative
# Source text: as §2
# souris [5] = assay: despair test in the mouse; conditions: qualitative
# Source text: as §2
# [6] = apomorphine test (apomorphine-induced hypothermia)
# Source text: as §2
# [7] = compared with 2,2-bis phénoxy NN-diméthyl éthylamine
SMILES,LD50 [1] [mg/kg],"action positive vis-à-vis de la toxicité de groupe à la yohimbine [2, 7]",toxicité de groupe induite par injection de yohimbine ([2]; qualitative),"dose léthale moyenne (souris [3]; acute toxicity, mouse)",toxicité (souris [3]; qualitative statement),effet hypothermisant de la réserpine [4],test du désespoir chez la souris (souris [5]),"action antagoniste sur le test à l'apomorphine [6, 7]",effet hypothermisant de l'apomorphine ([6]; qualitative)
"CN(C)CC(Oc1ccccc1)Oc1ccccc1 [2,2-bis phénoxy NN-diméthyl éthylamine, reference compound]",~800,,,,,,,,
"C[N+](C)([O-])CC(Oc1ccccc1)Oc1ccccc1 [N-oxydede 2,2-bis phénoxy NN-diméthyl éthylamine]",,nettement plus marquées,augmentent,il n'a pas été possible de déterminer,très faible,inhibent,antagonisent,nettement plus marquées,inhibent
